From patent publication EP0639971B1, “THERAPEUTIC COMBINATIONS” (priority 1992, dated 1993) come the findings set out here.

The term IC50 denotes the concentration at which inhibition is half-maximal. A lower IC50 goes with inhibition by little substance.

Holding throughout (assay type): cell-based
Assay [1] deals with HIV. Kind of assay: In vitro passage experiments: acquisition of resistance to oxathiolane nucleosides.
Assay [2] concerns zidovudine-resistant HIV strain (HIVRTMC) with M184 to V mutation. Put plainly: Antiviral sensitivity (IC50) of zidovudine-resistant HIV strain with M184 to V mutation introduced. Particulars: Human immunodeficiency virus 1.
Assay [3] deals with zidovudine-resistant HIV strain (HIVRTMC). Kind of assay: Antiviral sensitivity (IC50) of zidovudine-resistant HIV strain. The following applies: Human immunodeficiency virus 1; HIVRTMC before introduction of mutation.
For assay [4], the system named is HIV-1 population containing four mutations in the HIV-RT which confer zidovudine resistance. Put plainly: Passage of zidovudine-resistant HIV-1 in cell culture with increasing concentrations of Chloro-TIBO; antiviral sensitivity (IC50).
For assay [5], the system named is zidovudine-resistant virus with Y181 to C, together with M184 to V. Put plainly: Antiviral sensitivity (IC50) of zidovudine-resistant HIV strain with Y181 to C and M184 to V mutations introduced.

Turning to `Nc1ccn([C@H]2CS[C@@H](CO)O2)c(=O)n1` [3TC, (-)-2',3'-dideoxy-3'-thiacytidine], the “acquisition of resistance by HIV” value in assay [1] is recorded as “rapid resistance”.

Take `Nc1nc(=O)n([C@@H]2CS[C@H](CO)O2)cc1F` [FTC, (-)-2'3'-dideoxy-5-fluoro-3'-thiacytidine]: the “acquisition of resistance by HIV” value in assay [1] was “rapid resistance”. Further, the half-maximal inhibitory concentration (IC50) was more than 500000 nM in assay [2] and 640 nM in assay [3].

Consider `Cc1cn([C@H]2C[C@H](N=[N+]=[N-])[C@@H](CO)O2)c(=O)[nH]c1=O` [zidovudine, 3'-azido-3'-deoxythymidine], for which the IC50 in assay [2] was 170 nM; in assay [3], 1260 nM; in assay [4] (Human immunodeficiency virus 1, after five passages with Chloro-TIBO), less than 100 nM; in assay [4] (Human immunodeficiency virus 1, before passage with Chloro-TIBO) it was approximately 2000 nM; in assay [5] (Human immunodeficiency virus 1) it was 40 nM. Also, in assay [4] (after five passages with increasing concentrations of Chloro-TIBO), the “increase of sensitivity of the virus population to zidovudine” value is given as “about twenty fold”. Moreover, in assay [5], the “sensitivity / resistance of the resulting mutant virus strain” value was “completely sensitive”.
